Data reported in patent publication US20130123360A1, “METHODS AND USES RELATING TO THE IDENTIFICATION OF COMPOUND ASSOCIATED WITH BACTERIAL INFECTION” (SANOFI-AVENTIS DEUTSCHLAND GMBH, priority 2010, published 2013).
“And” between values parts separate entries of the source, which are not always exact repeats. Identical values can stand only once. Like-named read-outs stand apart in the source and are kept apart here.

What was measured:
[1] = target: T1, PqsD protein (Pseudomonas aeruginosa, UniProt P20582); assay: Inhibition of HHQ formation by PqsD in vitro (HPLC-MS2 quantification of HHQ); assay type: biochemical, Pseudomonas aeruginosa UCBPP-PA14; conditions: 0.2 mM anthraniloyl-CoA, 0.35 mM 3-oxodecanoic acid, 1 μg PqsD, 2 min preincubation, 2 min at 37° C., pH 8.0
T1 construct: The 1-kb NdeI-EcoRI fragment of pqsD was cloned between the NdeI and EcoRI sites of pET28b(+), resulting in pET28b(+)-pqsD; fused on or other part: N-terminal His tag from pET28b(+)
T1 sequence (P20582 1-337): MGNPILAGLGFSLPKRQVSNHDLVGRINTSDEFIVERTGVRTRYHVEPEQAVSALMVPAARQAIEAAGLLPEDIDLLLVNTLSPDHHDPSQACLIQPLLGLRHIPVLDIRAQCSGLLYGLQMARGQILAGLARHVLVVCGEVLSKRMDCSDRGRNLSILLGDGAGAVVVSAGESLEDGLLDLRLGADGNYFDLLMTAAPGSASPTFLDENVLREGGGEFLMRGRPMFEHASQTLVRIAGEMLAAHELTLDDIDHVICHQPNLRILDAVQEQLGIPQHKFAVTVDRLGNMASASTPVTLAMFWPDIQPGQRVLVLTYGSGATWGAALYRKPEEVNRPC
Method: Experimental protocol. With the PqsD assay established so far, it is possible to screen for possible inhibitors of HHQ formation by PqsD in vitro. For this purpose the concentrations of anthraniloyl-CoA, 3-oxodecanoic acid and PqsD protein are assigned to fixed values. At first PqsD, anthraniloyl-CoA and the compound to be tested are preincubated for a fixed period. The putative inhibitor is added to the assay in increasing concentrations. The reaction is started by the addition of 3-oxodecanoic acid and incubated for a fixed period. Then the reaction is quenched by the addition of methanol to a final concentration of 50 percent. For each reaction the HHQ formation is quantified by HPLC/MS^2. By comparing the amounts of HHQ formed in presence of the different concentrations of the inhibitor to that of a control reaction without inhibitor, it can be calculated for the inhibitor concentration at which HHQ formation is 50 percent of the control reaction (IC50). […]
HHQ quantification by HPLC-MS^2—HPLC-MS analysis was carried out using a HPLC system from the Agilent 1100 series coupled to a Brucker Daltonics HCTultra ESI-MS iontrap instrument operated in positive ionization mode. […] For HHQ quantification the signal intensities of fragment ion 159.0 Da created by fragmentation of 244.0 Da were used. […]

[2] = target: T1, PqsD protein; assay: Determination of kinetic parameters of PqsD (HHQ formation, HPLC-MS2); assay type: biochemical, Pseudomonas aeruginosa UCBPP-PA14
Method: Experimental protocol. […] The carbon-carbon bond formation between carbons 3 and 4 of the quinoline ring is likely to be catalyzed by one of the proteins PqsB, PqsC or PqsD which show all homology to the β-ketoacyl-acyl carrier protein synthase III family. To test of whether PqsD is necessary for HHQ formation, we purified recombinant PqsD protein and tried to readjust HHQ formation in vitro. The heterologous protein was incubated with anthraniloyl-CoA and 3-oxodecanoic acid and the reaction was analyzed by HPLC-MS.
HHQ quantification by HPLC-MS^2—HPLC-MS analysis was carried out using a HPLC system from the Agilent 1100 series coupled to a Brucker Daltonics HCTultra ESI-MS iontrap instrument operated in positive ionization mode. For separation a Onyx Monolythic C18 column (50×2 mm, Phenomenex) was used. […] For HHQ quantification the signal intensities of fragment ion 159.0 Da created by fragmentation of 244.0 Da were used. For creation of the standard curve HHQ standards containing 1, 5, 10, 20, 50, 100 and 200 ng ml^−1 were measured.
The reaction mixtures contained 50 mM Tris-HCl, pH 8.0, PqsD protein (1 μg), 0.2 mM anthraniloyl-CoA and 3-oxodecanoic acid ranging in concentration from 0.02 to 2 mM in a total volume of 50 μl. […] HHQ was quantified by HPLC by injecting 10 μl of the reaction mixture. […]

Structure (SMILES) | IC50 [1] | Km ([2]; fixed anthraniloyl-CoA 200 μM, varied 3-oxodecanoic acid 0.02 to 2 mM, 37° C., pH 8.0, triplicates, read-out: Km value of PqsD for 3-oxodecanoic acid) | Km ([2]; fixed anthraniloyl-CoA, varied 3-oxodecanoic acid concentrations, FIG. 4, read-out: Km value of PqsD (figure legend))
O=C(Nc1ccccc1C(=O)O)c1ccc(-c2ccccc2)c(Oc2ccccc2)c1 [2-[(2-phenoxybiphenyl-4-carbonyl)amino]benzoic acid] | 35 µM and ~35 µM |  | 
CCCCCCCC(=O)CC(=O)O [3-oxodecanoic acid] |  | 562 ± 91 µM | 560 µM
